Molecular target: T1, human M1 receptor (hCHRM1) (Homo sapiens, UniProt P11229)
T1 construct: expressed in transfected cells; host or cells: CHO-K1
T1 sequence (P11229 1-460): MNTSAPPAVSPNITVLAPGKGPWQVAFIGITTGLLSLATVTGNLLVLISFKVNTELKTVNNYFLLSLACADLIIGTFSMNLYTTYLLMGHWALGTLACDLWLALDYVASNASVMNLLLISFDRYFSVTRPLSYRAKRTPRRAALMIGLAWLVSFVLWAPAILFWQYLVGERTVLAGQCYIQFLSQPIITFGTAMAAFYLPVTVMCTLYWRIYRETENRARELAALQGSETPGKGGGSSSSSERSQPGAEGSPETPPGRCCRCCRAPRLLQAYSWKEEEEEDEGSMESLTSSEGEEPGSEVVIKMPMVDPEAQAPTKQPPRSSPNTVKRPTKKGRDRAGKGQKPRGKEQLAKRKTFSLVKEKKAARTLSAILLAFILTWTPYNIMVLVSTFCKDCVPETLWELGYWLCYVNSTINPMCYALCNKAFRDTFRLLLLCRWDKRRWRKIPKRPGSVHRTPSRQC
Experiment: Measurement of M1 receptor positive allosteric modulator (M1PAM) activity, calcium fluorescence with acetylcholine at EC20
Format: cell-based
Settings: for activity (%) at 10 μM: 10 μM test compound, 100% = 1 μM acetylcholine, 0% = DMSO; for EC50: CHO-K1 cells expressing hCHRM1, acetylcholine at EC20 (final 0.8-1.0 nM), read-out: IP value (inflection point in the concentration-dependent curve)
Method: Measurement of M1 Receptor Positive Allosteric Modulator (M1PAM) Activity
The activity of a test compound in the presence of acetylcholine at EC20 concentration (final concentration 0.8-1.0 nM), which affords an action corresponding to about 20% of the maximum activity, was measured as PAM activity. The method is as follows. CHO-K1 cells stably expressing a human M1 receptor (hCHRM1) were plated on a 384-well black clear bottom plate (BD Falcon) at 5,000 cells/well, and cultured in an incubator at 37° C., 5% CO2 for 1 day. The medium in the cell plate was removed, and assay buffer A containing calcium indicator (Recording medium (DOJINDO LABORATORIES), 0.1% BSA (Wako Pure Chemical Industries, Ltd.), 2.5 μg/mL Fluo-4 AM (DOJINDO LABORATORIES), 0.08% Pluronic F127 (DOJINDO LABORATORIES), 1.25 mM probenecid (DOJINDO LABORATORIES)) was added at 30 μL/well. The cells were left standing in the incubator at 37° C., 5% CO2 for 30 min, and further left standing at room temperature for 30 min. A test compound prepared by diluting with assay buffer B (HBSS (Invitrogen), 20 mM HEPES (Invitrogen), 0.1% BSA) containing 3.2-4.0 nM acetylcholine was added at 10 μL/well, and the fluorescence was measured by FDSS/μCELL (Hamamatsu Photonics K.K.) for 1 min every for 1 second. With the definition that the amount of change in the fluorescence on addition of acetylcholine (final concentration 1 μM) is 100% and that on addition of DMSO instead of a test compound is 0%, the activity (%) of the test compound was calculated, and the inflection point in the concentration-dependent curve of the test compound was calculated as IP values.

Structure (SMILES)	activity (%) at 10 μM [%]	EC50 [nM]
Cn1cc(-c2ccc(Cc3cc(C(=O)N[C@H]4COCC[C@@H]4O)nc4ccoc34)cc2)nn1 [Example 21, 1,5-anhydro-2,4-dideoxy-2-(((7-(4-(1-methyl-1H-1,2,3-triazol-4-yl)benzyl)furo[3,2-b]pyridin-5-yl)carbonyl)amino)-L-threo-pentitol]	100	1.6
Cn1cc(-c2ccc(C(F)c3cc(C(=O)N[C@H]4CCOC[C@@H]4O)nc4ccoc34)cn2)cn1 (single isomer, unassigned) [Example 51, 1,5-anhydro-2,3-dideoxy-3-(((7-(fluoro(6-(1-methyl-1H-pyrazol-4-yl)pyridin-3-yl)methyl)furo[3,2-b]pyridin-5-yl)carbonyl)amino)-L-threo-pentitol]	104	0.88
CN(C)C(=O)CNC(=O)c1ccc(Cc2cc(C(=O)N[C@H]3CCOC[C@@H]3O)nc3c2OCC3)cc1F [Example 100, 1,5-anhydro-2,3-dideoxy-3-(((7-(4-((2-(dimethylamino)-2-oxoethyl)carbamoyl)-3-fluorobenzyl)-2,3-dihydrofuro[3,2-b]pyridin-5-yl)carbonyl)amino)-L-threo-pentitol]	103	3.8
O=C(NC1CC(F)(F)CCC1O)c1cc(Cc2ccc(-n3cccn3)cc2)c2c(n1)CCO2 (single isomer, unassigned) [Example 27, N-(trans-5,5-difluoro-2-hydroxycyclohexyl)-7-(4-(1H-pyrazol-1-yl)benzyl)-2,3-dihydrofuro[3,2-b]pyridine-5-carboxamide]	100	4.5
Cn1ccc(-c2ccc(Cc3cc(C(=O)N[C@H]4COCC[C@@H]4O)nc4c3OCC4)cc2)n1 [Example 8, 1,5-anhydro-2,4-dideoxy-2-(((7-(4-(1-methyl-1H-pyrazol-3-yl)benzyl)-2,3-dihydrofuro[3,2-b]pyridin-5-yl)carbonyl)amino)-L-threo-pentitol]	100	7.9
Cn1cc(-c2ccc(Cc3cc(C(=O)N[C@H]4CCCC[C@@H]4O)nc4ccoc34)cc2)nn1 [Example 23, N-((1S,2S)-2-hydroxycyclohexyl)-7-(4-(1-methyl-1H-1,2,3-triazol-4-yl)benzyl)furo[3,2-b]pyridine-5-carboxamide]	99	1.5
Cc1csc(-c2ccc(Cc3cc(C(=O)N[C@H]4CCCC[C@@H]4O)nc4c3OCC4)cc2)n1 [Example 16, N-((1S,2S)-2-hydroxycyclohexyl)-7-(4-(4-methyl-1,3-thiazol-2-yl)benzyl)-2,3-dihydrofuro[3,2-b]pyridine-5-carboxamide]	100	10
Cn1cc(-c2ccc(Cc3cc(C(=O)N[C@H]4CCOC[C@@H]4O)nc4ccoc34)cn2)nn1 [Example 34, 1,5-anhydro-2,3-dideoxy-3-(((7-((6-(1-methyl-1H-1,2,3-triazol-4-yl)pyridin-3-yl)methyl)furo[3,2-b]pyridin-5-yl)carbonyl)amino)-L-threo-pentitol]	100	2.4
O=C(N[C@H]1CCOC[C@@H]1O)c1cc(Cc2ccc(C(=O)NC[C@H]3CCCO3)c(F)c2)c2occc2n1 [Example 105, 1,5-anhydro-2,3-dideoxy-3-(((7-(3-fluoro-4-(((2R)-tetrahydrofuran-2-ylmethyl)carbamoyl)benzyl)-furo[3,2-b]pyridin-5-yl)carbonyl)amino)-L-threo-pentitol]	105	4.3
CCNC(=O)c1ccc(Cc2cc(C(=O)N[C@H]3CCOC[C@@H]3O)nc3c2OCC3)cc1F [Example 81, 1,5-anhydro-2,3-dideoxy-3-(((7-(4-(ethylcarbamoyl)-3-fluorobenzyl)-2,3-dihydrofuro[3,2-b]pyridin-5-yl)carbonyl)amino)-L-threo-pentitol]	108	5.3
CC(C)SCCNC(=O)c1ccc(Cc2cc(C(=O)N[C@H]3CCOC[C@@H]3O)nc3c2OCC3)cc1F [Example 97, 1,5-anhydro-2,3-dideoxy-3-(((7-(3-fluoro-4-((2-(isopropylsulfanyl)ethyl)-carbamoyl)benzyl)-2,3-dihydrofuro[3,2-b]pyridin-5-yl)carbonyl)amino)-L-threo-pentitol]	107	5.1
Cn1cc(-c2ccc(C(F)c3cc(C(=O)N[C@H]4CCCC[C@@H]4O)nc4ccoc34)cc2)nn1 (single isomer, unassigned) [Example 57]	99	1.1
Cn1cc(-c2ccc(Cc3cc(C(=O)N[C@H]4CCOC[C@@H]4O)nc4c3OCC4)cn2)cn1 [Example 60, 1,5-anhydro-2,3-dideoxy-3-(((7-((6-(1-methyl-1H-pyrazol-4-yl)pyridin-3-yl)methyl)-2,3-dihydrofuro[3,2-b]pyridin-5-yl)carbonyl)amino)-L-threo-pentitol]	104	1.6
CNC(=O)c1ccc(Cc2cc(C(=O)N[C@H]3CCOC[C@@H]3O)nc3cc(C)oc23)cc1F [Example 65, 1,5-anhydro-2,3-dideoxy-3-(((7-(3-fluoro-4-(methylcarbamoyl)benzyl)-2-methylfuro[3,2-b]pyridin-5-yl)carbonyl)amino)-L-threo-pentitol]	106	8.5
Cn1cc(-c2ccc(Cc3cc(C(=O)N[C@H]4CCCC[C@@H]4O)nc4c3OCC4)cc2)nn1 [Example 47, N-((1S,2S)-2-hydroxycyclohexyl)-7-(4-(1-methyl-1H-1,2,3-triazol-4-yl)benzyl)-2,3-dihydrofuro[3,2-b]pyridine-5-carboxamide]	101	1.8
